This passage reports Kd results from ChEMBL document CHEMBL3991601, “The target landscape of clinical kinase drugs” (Science, 2017).

Active and inactive are the calls of the source. Some results are limits rather than exact numbers.

Assay [1] deals with Glycogen synthase kinase-3 beta (Homo sapiens, UniProt P49841).
The target of assay [2] is 26S proteasome regulatory subunit 6B (Homo sapiens, UniProt P43686).
In the next assay the target is Wee1-like protein kinase (Homo sapiens, UniProt P30291).
Chain of Wee1-like protein kinase (P30291 whole entry): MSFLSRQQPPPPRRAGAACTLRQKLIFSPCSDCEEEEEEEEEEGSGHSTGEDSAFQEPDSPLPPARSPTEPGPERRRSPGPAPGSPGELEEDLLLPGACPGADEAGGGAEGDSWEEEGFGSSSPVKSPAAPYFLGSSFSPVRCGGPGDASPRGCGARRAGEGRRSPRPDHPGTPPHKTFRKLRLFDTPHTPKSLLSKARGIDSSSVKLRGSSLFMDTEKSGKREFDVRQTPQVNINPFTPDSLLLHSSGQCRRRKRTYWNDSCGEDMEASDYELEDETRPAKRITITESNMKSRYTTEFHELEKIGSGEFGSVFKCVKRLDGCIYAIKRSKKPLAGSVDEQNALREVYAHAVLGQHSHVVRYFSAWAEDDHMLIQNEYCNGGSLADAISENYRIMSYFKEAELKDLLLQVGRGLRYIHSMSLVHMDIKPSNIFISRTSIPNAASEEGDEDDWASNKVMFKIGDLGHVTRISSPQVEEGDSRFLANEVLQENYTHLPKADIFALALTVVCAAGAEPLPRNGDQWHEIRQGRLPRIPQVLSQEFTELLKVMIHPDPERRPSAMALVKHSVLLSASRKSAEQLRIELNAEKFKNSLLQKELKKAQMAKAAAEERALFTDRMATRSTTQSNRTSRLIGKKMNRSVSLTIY
For assay [3], the target named is T1, cGMP-dependent protein kinase 1 (Homo sapiens, UniProt Q13976).
T1 sequence (Q13976 whole entry): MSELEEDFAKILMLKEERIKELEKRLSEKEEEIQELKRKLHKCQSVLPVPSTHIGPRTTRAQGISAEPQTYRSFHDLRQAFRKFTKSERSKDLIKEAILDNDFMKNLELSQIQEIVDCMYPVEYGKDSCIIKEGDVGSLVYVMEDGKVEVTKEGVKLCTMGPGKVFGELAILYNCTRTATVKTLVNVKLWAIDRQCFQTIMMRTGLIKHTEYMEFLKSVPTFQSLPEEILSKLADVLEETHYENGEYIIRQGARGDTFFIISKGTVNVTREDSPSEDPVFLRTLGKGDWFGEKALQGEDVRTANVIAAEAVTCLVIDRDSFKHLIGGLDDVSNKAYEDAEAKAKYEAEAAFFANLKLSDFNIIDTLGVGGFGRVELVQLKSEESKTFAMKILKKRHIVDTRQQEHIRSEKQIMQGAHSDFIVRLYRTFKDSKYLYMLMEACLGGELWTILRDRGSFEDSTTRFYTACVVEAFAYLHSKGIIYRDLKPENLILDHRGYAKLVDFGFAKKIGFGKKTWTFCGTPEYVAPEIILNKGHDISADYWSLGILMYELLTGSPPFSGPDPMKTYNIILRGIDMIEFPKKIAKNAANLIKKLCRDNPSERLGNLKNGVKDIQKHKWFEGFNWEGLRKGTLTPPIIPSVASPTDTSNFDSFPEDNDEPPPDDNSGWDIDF

Assay [4] concerns the target Mitogen-activated protein kinase 1 (Homo sapiens, UniProt P28482).
In assay [5] the target is T2, Serine/threonine-protein kinase NLK (Homo sapiens, UniProt Q9UBE8).
T2 sequence (Q9UBE8 whole entry): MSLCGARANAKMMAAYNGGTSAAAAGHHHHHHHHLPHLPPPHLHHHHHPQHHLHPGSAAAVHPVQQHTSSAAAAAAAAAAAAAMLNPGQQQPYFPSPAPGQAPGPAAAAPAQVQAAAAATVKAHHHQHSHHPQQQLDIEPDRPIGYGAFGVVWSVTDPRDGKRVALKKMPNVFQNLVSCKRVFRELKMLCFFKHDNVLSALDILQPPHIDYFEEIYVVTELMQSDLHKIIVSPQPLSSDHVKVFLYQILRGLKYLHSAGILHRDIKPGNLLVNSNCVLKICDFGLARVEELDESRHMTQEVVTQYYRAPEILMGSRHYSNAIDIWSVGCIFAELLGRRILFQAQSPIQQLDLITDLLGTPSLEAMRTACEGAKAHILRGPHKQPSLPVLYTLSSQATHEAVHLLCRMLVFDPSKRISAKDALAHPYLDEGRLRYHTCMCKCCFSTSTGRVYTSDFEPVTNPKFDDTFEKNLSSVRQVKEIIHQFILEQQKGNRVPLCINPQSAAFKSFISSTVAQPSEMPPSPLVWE

For assay [6], the target named is T3, Structural maintenance of chromosomes protein 1A (Homo sapiens, UniProt Q14683).
T3 sequence (Q14683 whole entry): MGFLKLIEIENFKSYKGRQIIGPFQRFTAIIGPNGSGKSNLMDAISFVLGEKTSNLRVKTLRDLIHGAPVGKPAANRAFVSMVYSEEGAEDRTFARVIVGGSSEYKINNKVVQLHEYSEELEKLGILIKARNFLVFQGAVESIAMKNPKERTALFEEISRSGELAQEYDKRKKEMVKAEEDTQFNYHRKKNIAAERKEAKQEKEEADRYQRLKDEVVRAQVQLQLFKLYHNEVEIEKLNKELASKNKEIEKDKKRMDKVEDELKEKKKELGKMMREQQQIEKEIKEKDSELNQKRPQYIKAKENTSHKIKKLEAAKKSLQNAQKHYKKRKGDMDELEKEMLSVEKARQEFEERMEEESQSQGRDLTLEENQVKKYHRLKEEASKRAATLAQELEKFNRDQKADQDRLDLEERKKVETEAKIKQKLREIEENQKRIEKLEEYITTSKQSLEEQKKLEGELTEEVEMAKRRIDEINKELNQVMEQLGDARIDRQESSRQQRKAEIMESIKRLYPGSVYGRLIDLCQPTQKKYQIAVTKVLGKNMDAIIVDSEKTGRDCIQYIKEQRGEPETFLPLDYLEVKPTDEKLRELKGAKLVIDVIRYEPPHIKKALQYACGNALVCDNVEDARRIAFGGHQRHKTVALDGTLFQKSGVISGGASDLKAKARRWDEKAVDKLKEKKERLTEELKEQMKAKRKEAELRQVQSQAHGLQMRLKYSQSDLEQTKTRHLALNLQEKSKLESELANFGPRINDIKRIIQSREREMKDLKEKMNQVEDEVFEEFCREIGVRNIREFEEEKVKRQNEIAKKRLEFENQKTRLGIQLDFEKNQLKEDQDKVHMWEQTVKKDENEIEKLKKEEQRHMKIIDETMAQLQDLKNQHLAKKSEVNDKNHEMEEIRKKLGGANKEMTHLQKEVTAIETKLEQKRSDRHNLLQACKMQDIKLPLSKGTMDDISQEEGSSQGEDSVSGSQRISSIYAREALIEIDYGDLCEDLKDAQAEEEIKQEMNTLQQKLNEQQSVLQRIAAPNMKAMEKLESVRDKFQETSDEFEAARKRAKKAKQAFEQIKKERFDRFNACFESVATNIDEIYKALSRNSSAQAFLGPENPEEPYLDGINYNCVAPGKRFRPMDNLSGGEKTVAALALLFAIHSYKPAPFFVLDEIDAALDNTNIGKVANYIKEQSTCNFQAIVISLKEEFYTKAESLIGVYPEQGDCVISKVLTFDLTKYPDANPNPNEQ

A word on the Kd: it is the equilibrium constant for the complex coming apart.
Also: in the data inactive means no Kd found up to 30 µM.

Chain of Glycogen synthase kinase-3 beta (P49841 whole entry): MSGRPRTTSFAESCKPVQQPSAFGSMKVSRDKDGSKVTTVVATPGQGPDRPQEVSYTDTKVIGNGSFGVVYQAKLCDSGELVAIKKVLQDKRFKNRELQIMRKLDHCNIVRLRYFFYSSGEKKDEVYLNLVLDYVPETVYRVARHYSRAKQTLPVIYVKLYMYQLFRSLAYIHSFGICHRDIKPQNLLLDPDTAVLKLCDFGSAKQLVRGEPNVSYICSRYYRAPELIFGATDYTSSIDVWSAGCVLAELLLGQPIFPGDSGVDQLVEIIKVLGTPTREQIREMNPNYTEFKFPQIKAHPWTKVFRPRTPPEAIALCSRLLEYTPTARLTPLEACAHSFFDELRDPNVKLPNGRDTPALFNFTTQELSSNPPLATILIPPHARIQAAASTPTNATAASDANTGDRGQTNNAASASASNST
Chain of 26S proteasome regulatory subunit 6B (P43686 whole entry): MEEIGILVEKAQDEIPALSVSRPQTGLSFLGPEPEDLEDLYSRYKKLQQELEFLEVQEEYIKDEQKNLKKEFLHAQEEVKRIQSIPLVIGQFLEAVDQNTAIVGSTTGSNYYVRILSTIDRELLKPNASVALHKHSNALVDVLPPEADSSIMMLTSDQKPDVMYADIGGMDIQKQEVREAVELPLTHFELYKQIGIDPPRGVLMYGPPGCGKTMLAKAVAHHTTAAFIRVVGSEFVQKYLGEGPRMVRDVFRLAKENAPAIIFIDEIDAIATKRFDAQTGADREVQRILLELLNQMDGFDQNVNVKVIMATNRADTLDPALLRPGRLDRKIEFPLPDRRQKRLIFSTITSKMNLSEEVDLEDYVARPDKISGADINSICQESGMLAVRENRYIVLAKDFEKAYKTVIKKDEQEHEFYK
Chain of Mitogen-activated protein kinase 1 (P28482 whole entry): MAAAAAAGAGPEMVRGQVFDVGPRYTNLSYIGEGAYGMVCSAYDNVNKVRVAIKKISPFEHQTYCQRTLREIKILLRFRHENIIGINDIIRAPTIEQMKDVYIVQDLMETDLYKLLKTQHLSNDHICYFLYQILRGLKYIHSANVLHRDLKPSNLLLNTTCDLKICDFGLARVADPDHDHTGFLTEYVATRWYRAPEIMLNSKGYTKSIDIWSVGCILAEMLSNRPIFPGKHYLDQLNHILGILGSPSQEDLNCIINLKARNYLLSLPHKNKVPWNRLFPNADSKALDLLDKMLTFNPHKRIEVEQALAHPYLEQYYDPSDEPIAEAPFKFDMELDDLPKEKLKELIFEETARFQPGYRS

Take `CO[C@H]1C[C@@H]2CC[C@@H](C)[C@@](O)(O2)C(=O)C(=O)N2CCCC[C@H]2C(=O)O[C@H]([C@H](C)C[C@@H]2CC[C@@H](OCCO)[C@H](OC)C2)CC(=O)[C@H](C)/C=C(\C)[C@@H](O)[C@@H](OC)C(=O)[C@H](C)C[C@H](C)/C=C/C=C/C=C/1C` [EVEROLIMUS]: the Kd (in assay [1]; in assay [2]; at Wee1-like protein kinase; in assay [3]; in assay [4]; in assay [5]) was > 30 µM (inactive) in each case. The Kd in assay [6] is > 30 µM (inactive).

For the compound `CCCS(=O)(=O)Nc1ccc(F)c(C(=O)c2c[nH]c3ncc(-c4ccc(Cl)cc4)cc23)c1F` [VEMURAFENIB], the Kd (in assay [1]; in assay [2]; at Wee1-like protein kinase; in assay [3]; in assay [4]; in assay [5]) was > 30 µM (inactive) throughout. The Kd in assay [6] was > 30 µM (inactive).

For `O=C(Nc1ccc(-c2ccnc(Nc3ccc(N4CCOCC4)cc3)n2)cc1)C1CCCN1` (stereo not drawn) [XL-019], the Kd is > 30 µM (inactive) in assay [1]; > 30 µM (inactive) in assay [2]; > 30 µM (inactive) on Wee1-like protein kinase; > 30 µM (inactive) in assay [3]; > 30 µM (inactive) in assay [4]; 0.027 µM in assay [5]. Further, in assay [6], the Kd is > 30 µM (inactive).

For `Cn1ncc(Cl)c1-c1cc(C(=O)N[C@H](CN)Cc2cccc(F)c2)sc1Cl` [AFURESERTIB], the Kd (in assay [1]; in assay [2]; on Wee1-like protein kinase; in assay [3]; in assay [4]; in assay [5]) was > 30 µM (inactive) each time. In assay [6], the Kd was > 30 µM (inactive).

Take `CNC(=O)CN1CCC(Oc2cc3c(Nc4cccc(Cl)c4F)ncnc3cc2OC)CC1` [SAPITINIB]: the Kd (in assay [1]; in assay [2]; on Wee1-like protein kinase; in assay [3]; in assay [4]; in assay [5]) was > 30 µM (inactive) each time. Also, the Kd in assay [6] is > 30 µM (inactive).

Turning to `CC(=O)Nc1cccc(-n2c(=O)n(C3CC3)c(=O)c3c(Nc4ccc(I)cc4F)n(C)c(=O)c(C)c32)c1` [TRAMETINIB], the Kd (in assay [1]; in assay [2]; on Wee1-like protein kinase; in assay [3]; in assay [4]; in assay [5]) was > 30 µM (inactive) each time. Also, in assay [6], the Kd was > 30 µM (inactive).

Turning to `COC(=O)N[C@@H](C)CNc1nccc(-c2cn(C(C)C)nc2-c2cc(Cl)cc(NS(C)(=O)=O)c2F)n1` [ENCORAFENIB], the Kd is 0.425 µM (active) in assay [1]; > 30 µM (inactive) in assay [2]; > 30 µM (inactive) on Wee1-like protein kinase; > 30 µM (inactive) in assay [3]; > 30 µM (inactive) in assay [4]; 0.732 µM (active) in assay [5]. For the same compound, the Kd in assay [6] is > 30 µM (inactive).

`COC(=O)[C@@]1(O)C[C@H]2O[C@]1(C)n1c3ccccc3c3c4c(c5c6ccccc6n2c5c31)C(=O)NC4` [K-252A]: the Kd (in assay [1]; in assay [2]; on Wee1-like protein kinase; in assay [3]; in assay [4]; in assay [5]) was > 30 µM (inactive) throughout. Also, in assay [6], the Kd is > 30 µM (inactive).

`CCS(=O)(=O)N1CC(CC#N)(n2cc(-c3ncnc4[nH]ccc34)cn2)C1` [BARICITINIB]: the Kd (in assay [1]; in assay [2]; at Wee1-like protein kinase; in assay [3]; in assay [4]; in assay [5]) was > 30 µM (inactive) in each case. Besides, the Kd in assay [6] was > 30 µM (inactive).

Turning to `CNS(=O)(=O)Nc1nccc(Cc2c(C)c3ccc(Oc4ncccn4)cc3oc2=O)c1F` [AVUTOMETINIB], the Kd (in assay [1]; in assay [2]; on Wee1-like protein kinase; in assay [3]; in assay [4]; in assay [5]) was > 30 µM (inactive) each time. In addition, the Kd in assay [6] was > 30 µM (inactive).

Consider `COc1ccc(-c2ccc3c(N4CCOC[C@@H]4C)nc(N4CCOC[C@@H]4C)nc3n2)cc1CO` [AZD-8055], for which the Kd (in assay [1]; in assay [2]; on Wee1-like protein kinase; in assay [3]; in assay [4]; in assay [5]) was > 30 µM (inactive) each time. Further, in assay [6], the Kd is > 30 µM (inactive).

For the compound `O=C(O)[C@]1(Cc2cccc(Nc3nccs3)n2)CC[C@@H](Oc2cccc(Cl)c2F)CC1` [MK-5108], the Kd (in assay [1]; in assay [2]; on Wee1-like protein kinase; in assay [3]; in assay [4]; in assay [5]) was > 30 µM (inactive) each time. Moreover, in assay [6], the Kd was > 30 µM (inactive).

Regarding `C[C@@H](Nc1cc(F)cc(F)c1)c1cc(C(=O)N(C)C)cc2c(=O)cc(N3CCOCC3)oc12` [AZD-8186], the Kd (in assay [1]; in assay [2]; on Wee1-like protein kinase; in assay [3]; in assay [4]; in assay [5]) was > 30 µM (inactive) throughout. The Kd in assay [6] is > 30 µM (inactive).

Consider `Cc1c(F)cc(C(=O)NC2CC2)cc1-c1ccc(C(=O)NCC(C)(C)C)cn1` [LOSMAPIMOD], for which the Kd (in assay [1]; in assay [2]; at Wee1-like protein kinase; in assay [3]; in assay [4]; in assay [5]) was > 30 µM (inactive) throughout. In addition, the Kd in assay [6] was > 30 µM (inactive).
